One sequence from patent publication US7820379B2, “Process for high throughput screening of CpG-based immuno-agonist/antagonist” (Coley Pharmaceutical GmbH, priority 2000, dated 2010) can be followed below.

The test system of this experiment is monocyte-derived dendritic cells (MDDC). Put plainly: Cytokine production by monocyte-derived dendritic cells (ELISA). The class given is cell-based, human. The following applies: purified MDDC; ODN 2 μM, LPS 100 ng/ml. As for the experimental part:
Human dendritic cells (DC) have been claimed to be responsive to CpG-DNA. […] The converse was true for stimulation of monocyte-derived dendritic cells (MDDC) (FIG. 8 and unpublished data). […] IL-8 and TNF concentration was determined by enzyme-linked immunosorbent assay (ELISA). The CD123+DC response was DNA- and CpG-motif restricted. […] Due to this segregated response we analyzed TLR expression.
On the technique in general: ELISA stands for enzyme-linked immunosorbent assay.

For the sequence TCGTCGTTTTGTCGTTTTGTCGTT [ODN 2006], the “response of MDDC (IL-8, TNF)” value was “not”.
